Source: patent publication US10278396B2, “Synergistic Bacillus thuringiensis subsp. kurstaki and cyantraniliprole mixtures for diamondback moth, beet armyworm, sugarcane borer, and soybean looper control” (priority 2016, dated 2019)
Where two headings read alike, the source gives them in different places.

Experiments:
beet armyworm larvae = experiment: leaf dip test, beet armyworm larvae; assay type: in vivo; conditions: Spodoptera exigua, foliar, Btk 0.54 ppm, cyantraniliprole 1.0 ppm, mixture 0.54 ppm + 1.0 ppm, read-out: % Efficacy
Method: (§1) For these tests, standardized laboratory leaf dip methods were used to inoculate plant material with treatment(s). Dry, treated leaves were placed into Petri dishes (100×25 mm) containing filter paper wetted with 500 μl of distilled H2O (“dH2O”). Each dish was then infested with between 5 and 10 larvae, dependent on species. Efficacy ratings were taken at specified intervals. Synergy ratings were calculated for each test.
(§2) % Cexp=A+B−(AB/100), where % Cexp is the expected efficacy and “in which A and B are the control levels given by the single [insecticides]. If the ratio between the experimentally observed efficacy of the mixture Cobs and the expected efficacy of the mixture is greater than 1, synergistic interactions are present in the mixture.” (Gisi, Synergisitic Interaction of Fungicides in Mixtures, The American Phytopathological Society, 86:11, 1273-1279, 1996). Adopting a conservative approach, Applicant determined synergy to be present at ratios of ≥1.15.
In this study, the response of beet armyworm larvae to synergistic amounts of Bacillus thuringiensis subsp. kurstaki and cyantraniliprole was observed.
(§3) Bacillus thuringiensis subsp. kurstaki was applied at a concentration of 0.54 ppm (0.54 μg/ml). Cyantraniliprole was applied at a concentration of 1.0 ppm (1.0 μg/ml). […]

cabbage looper larvae = experiment: leaf dip test, cabbage looper larvae; assay type: in vivo; conditions: Trichoplusia ni, foliar, Btk 0.54 ppm, cyantraniliprole 0.50 ppm, mixture 0.54 ppm + 0.50 ppm, read-out: % Efficacy
Method: as §1, §2
In this study, the response of cabbage looper larvae to Bacillus thuringiensis subsp. kurstaki and cyantraniliprole was observed.
Bacillus thuringiensis subsp. kurstaki was applied at a concentration of 0.54 ppm (0.54 μg/ml). Cyantraniliprole was applied at a concentration of 0.50 ppm (0.50 μg/ml). […]

[1] = system: southwestern corn borer larvae; experiment: leaf dip test, southwestern corn borer larvae; assay type: in vivo, Diatraea grandiosella; conditions: foliar, Btk 0.54 ppm, cyantraniliprole 0.1 ppm, mixture 0.54 ppm + 0.1 ppm, read-out: % Efficacy
Method: as §1, §2
In this study, the response of southwestern corn borer larvae to Bacillus thuringiensis subsp. kurstaki and cyantraniliprole was observed.
Bacillus thuringiensis subsp. kurstaki was applied at a concentration of 0.54 ppm (0.54 μg/ml). Cyantraniliprole was applied at a concentration of 0.1 ppm (0.1 μg/ml). […]

diamondback moth larvae = experiment: leaf dip test, diamondback moth larvae; assay type: in vivo; conditions: Plutella xylostella, foliar, Btk 0.54 ppm, cyantraniliprole 0.1 ppm, mixture 0.54 ppm + 0.1 ppm, read-out: % Efficacy
Method: as §1
In this study, the response of diamondback moth larvae to synergistic amounts of Bacillus thuringiensis subsp. kurstaki (“Btk”) and cyantraniliprole was observed.
% Cexp=A+B−(AB/100), where % Cexp is the expected efficacy and “in which A and B are the control levels given by the single [insecticides]. […] Adopting a conservative approach, Applicant determined synergy to be present at ratios of ≥1.15. […]
In order to determine synergy, rates below normal field rate ranges must be used. If normal field rate ranges are used, all of the larvae would die (combining a lethal or near lethal dose of Bacillus thuringiensis subsp. kurstaki with a lethal dose of cyantraniliprole would most likely lead to larvae death) in every treatment and synergy would not be able to be determined. […]

soybean looper larvae = experiment: leaf dip test, soybean looper larvae; assay type: in vivo, Chrysodeixis includens; conditions: foliar, Btk 0.54 ppm, cyantraniliprole 1.0 ppm, mixture 0.54 ppm + 1.0 ppm, read-out: % Efficacy
Method: as §1, §2
In this study, the response of soybean looper larvae to synergistic amounts of Bacillus thuringiensis subsp. kurstaki and cyantraniliprole was observed.
as §3

corn earworm larvae = experiment: leaf dip test, corn earworm larvae; assay type: in vivo; conditions: Helicoverpa zea, foliar, Btk 0.54 ppm, cyantraniliprole 10.0 ppm, mixture 0.54 ppm + 10.0 ppm, read-out: % Efficacy
Method: as §1, §2
In this study, the response of corn earworm larvae to Bacillus thuringiensis subsp. kurstaki and cyantraniliprole was observed.
Bacillus thuringiensis subsp. kurstaki was applied at a concentration of 0.54 ppm (0.54 μg/ml). Cyantraniliprole was applied at a concentration of 10.0 ppm (10.0 μg/ml). […]

sugarcane borer larvae = experiment: leaf dip test, sugarcane borer larvae; assay type: in vivo; conditions: Diatraea saccharalis, foliar, Btk 0.54 ppm, cyantraniliprole 1.0 ppm, mixture 0.54 ppm + 1.0 ppm, read-out: % Efficacy
Method: as §1, §2
In this study, the response of sugarcane borer larvae to synergistic amounts of Bacillus thuringiensis subsp. kurstaki and cyantraniliprole was observed.
as §3

With CNC(=O)c1cc(C#N)cc(C)c1NC(=O)c1cc(Br)nn1-c1ncccc1Cl [Cyantraniliprole, 3-Bromo-1-(3-chloro-2-pyridinyl)-N-[4-cyano-2-methyl-6-(methylcarbamoyl)phenyl]-1H-pyrazole-5-carboxamide] as the compound, how does the Emax at 1 ppm (beet armyworm larvae; 24 h after treatment) read?
Its Emax at 1 ppm is 20%.

What about the Emax at 1 ppm (beet armyworm larvae; 48 h after treatment) of the same compound?
The Emax at 1 ppm was 37%.

What about the Emax at 0.5 ppm (cabbage looper larvae; 24 h after treatment) of the same compound?
The Emax at 0.5 ppm was 15%.

And the Emax at 0.5 ppm (cabbage looper larvae; 48 h after treatment)?
The Emax at 0.5 ppm was 51%.

And the Emax at 0.1 ppm ([1]; 24 h after treatment)?
The Emax at 0.1 ppm was 23%.

And the Emax at 0.1 ppm ([1]; 48 h after treatment)?
Its Emax at 0.1 ppm is 39%.

What about the Emax at 0.1 ppm (diamondback moth larvae; 24 h after treatment) of the same compound?
Its Emax at 0.1 ppm is 16%.

And the Emax at 0.1 ppm (diamondback moth larvae; 48 h after treatment)?
Its Emax at 0.1 ppm is 47%.

And the Emax at 1 ppm (soybean looper larvae; 24 h after treatment)?
Its Emax at 1 ppm is 6%.

And the Emax at 1 ppm (soybean looper larvae; 48 h after treatment)?
Its Emax at 1 ppm is 10%.

What about the Emax at 10 ppm (corn earworm larvae; 24 h after treatment) of the same compound?
The Emax at 10 ppm was 29%.

What about the Emax at 10 ppm (corn earworm larvae; 48 h after treatment) of the same compound?
The Emax at 10 ppm was 33%.

And the Emax at 1 ppm (sugarcane borer larvae; 24 h after treatment)?
Its Emax at 1 ppm is 30%.

And the Emax at 1 ppm (sugarcane borer larvae; 48 h after treatment)?
Its Emax at 1 ppm is 32%.
